# Assay: Plasma levels of the two forms of PEA
# Conditions: in vivo
smiles,measurement,value
"CCCCCCCCCCCCCCCC(=O)NCCO [PEA-um, palmitoylethanolamide]","Plasma levels, PEA-um compared with PEA-m",substantially the same

# Source: patent US12370157B2, “Method for the treatment of COVID-19 infections with palmitoylethanolamide” (Epitech Group S.p.A., priority 2021, dated 2025)
